Measurements reported in paper PMC4186430, “Modeling of age-dependent amyloid accumulation and γ-secretase inhibition of soluble and insoluble Aβ in a transgenic mouse model of amyloid deposition” (Pharmacology Research & Perspectives, 2013).
Marks after values point to notes of the source that are not given here.

Key:
[1] = Plasma unbound fraction; assay type: in vitro ADME; conditions: observed, read-out: fu,pl (plasma unbound fraction)
[2] = tested on: soluble Aβ40; test: Soluble (DEA) brain Aβ40 levels in Tg2576 mice after MRK-560, ELISA; assay type: in vivo, Tg2576 transgenic mice
Excerpt: C57BL/6 female mice (Harlan Laboratories, Horst, The Netherlands), Tg2576 transgenic female mice (Taconics, Georgetown, NY), overexpressing human APP with the Swedish mutation (Hsiao et al. [1996]), and Tg2576 wild-type littermates were used in the experiments. The C57BL/6 and wild-type littermates were only used for pharmacokinetic PK sampling and analysis. The housing environment was humidity- and temperature-controlled with a constant 12-h light/dark cycle. The animals were kept in conventional housing (5–10 mice per cage) and had access to standard rodent chow and tap water ad libitum. The transgenic mice were aged at the local AstraZeneca (AZ) animal facilities. On the day of study, the mice were weighed. MRK-560 (synthesized in-house; AZ) or vehicle was administered by oral gavage. Three types of vehicles were used: (1) 1% MCC/NaCMC (Microcrystalline Cellulose/Sodiumcarboxymethyl Cellulose) +0.6% lipoid S100, (2) 20% HPβCD in 0.1 mol/L Meglumine, and (3) 40% HPβCD in 0.3 mol/L Meglumine. Observations of the animals’ health were made throughout all the experiments. Data from 23 MRK-560 studies were used in this analysis and details of all studies can be found in Table 1. For the AP analysis, data from vehicle and untreated Tg2576 mice from 48 additional (i.e., non-MRK-560) in-house studies were used. The additional dataset consisted of Aβ levels measured in Tg2576 mice of various ages, between 3.5 and 26 months at termination. Details of those data can be found in Appelkvist et al. ([2011]). In total, data from 71 preclinical studies were used.
After blood sampling, mice were sacrificed by decapitation followed by brain samples collection. Cerebellum and olfactory bulbs were removed and the forebrain was divided into left and right hemispheres, weighed, and snap frozen.
Left hemisphere of the cerebrum was sequentially extracted by diethylamine (DEA) followed by formic acid (FA) to obtain soluble and insoluble fractions of Aβ species, respectively. In short, brain tissue was sonicated in 1:18 (w/v) 0.2% DEA and 50 mmol/L NaCl, pH 11.6. After centrifugation (133,000g, 4°C, 1 h), the supernatant (soluble Aβ) was recovered, neutralized to a pH of 8.0 using 2 mol/L Tris-HCl, and immediately frozen to -70°C. The remaining pellet was sonicated in 1:18 (w/v) 70% FA. Homogenates were centrifuged at +4°C for 1 h at 133,000g. Recovered supernatants (insoluble Aβ) were neutralized to pH 7.5 with 1 mol/L Tris at 1:20 (w/v) dilutions, frozen on dry ice, and stored at −70°C until analysis.
Amyloid beta (Aβ40) and Aβ42 concentrations were measured in plasma, in soluble (DEA), and insoluble (FA) brain fractions using commercial sandwich ELISA kits (KHB3482 from Invitrogen, Carlsbad, CA, and RUO80177 from Innogenetics, Gent, Belgium). To compensate for matrix effects, plasma or brain homogenates from non-transgenic mice were used for preparation of standard curves. The lower and higher limits of quantification (LLOQ and HLOQ) were determined for each immunoassay plate based on the lowest and highest standard point, respectively. The coefficient of variation was less than20% and the accuracy was between 80% and 120%.
Statistical comparisons of the vehicle and MRK-560 treatment data were made by unpaired t-tests. The level of significance was set at P < 0.05. All analyses were performed using GraphPad Prism (GraphPad Prism Software Inc., San Diego, CA) and results were reported as mean ± SEM.

[3] = tested on: soluble Aβ40; set-up: method as in Townsend et al. [2010]; conditions: 12-month-old Tg2576 mice; 3-month MRK-560 treatment; ref Townsend et al. [2010]; cited from earlier work
[4] = Fraction unbound in brain, rat brain slice uptake method; assay type: in vitro ADME, Sprague-Dawley rats; conditions: male, Sprague-Dawley, brain slices (coronal slices of striatal areas, 300 μm), observed, 1 μmol/L compound, 37°C, read-out: fu,br (brain unbound fraction)
Protocol: Determination of the fraction of compound unbound in the brain was determined in a rat brain slice uptake method (Fridén et al. [2009]; Borgegård et al. [2011]). In short, male Sprague-Dawley rats were decapitated under isoflurane anesthesia. The brains were immersed in an ice-cold oxygenated extracellular fluid (ECF) buffer. Coronal slices of the striatal areas (300 μm) were preincubated in a 10 mL ECF buffer for 5 min at 37°C followed by incubation with 1 μmol/L compound in an ECF buffer for 5 h at 37°C under 5% CO2 in oxygen. After incubation, brain slices were weighed and homogenized in nine volumes (w/v) of ECF buffer. The slice homogenates and ECF buffer were stored at −20°C prior to analysis. To 50 μL homogenized tissue, 150 μL ice-cold acetonitrile containing an internal standard was added in a precipitation plate. After mixing and centrifugation (4°C, 4000 rpm, 20 min), supernatant was transferred to the analysis plate and analyzed by LC/MS/MS.

For `O=S(=O)(NC1CCC(c2cc(F)ccc2F)(S(=O)(=O)c2ccc(Cl)cc2)CC1)C(F)(F)F` (stereo not drawn) [MRK-560, N-[cis-4-[(4-chlorophenyl)-sulfonyl]-4-(2,5-difluorophenyl)cyclohexyl]-1,1,1-trifluoromethanesulfonamide], the fraction unbound [1] was 0.004, the “decrease from baseline in soluble Aβ40 levels” value ([2]; 70 μmol/kg single dose, young mice, 6 h after dosing) was 74% and the “Effect on soluble Aβ40” value ([2]; study 7, Tg2576, 20 weeks at start, 70 μmol/kg p.o., 4 days, 3 h since last dosing, P < 0.05) was −72 ^* %. For the same compound, the “Effect on soluble Aβ40” value ([2]; study 8, Tg2576, 24 weeks at start, 0.5 μmol/kg p.o., 30 days, 3 h since last dosing) was −6%, the “Effect on soluble Aβ40” value ([2]; study 8, Tg2576, 24 weeks at start, 6 μmol/kg p.o., 30 days, 3 h since last dosing, P < 0.05) was −45.6 ^* % and the “Effect on soluble Aβ40” value ([2]; study 9, Tg2576, 24 weeks at start, 0.5 μmol/kg p.o., 94 days, 3 h since last dosing) was −17%. The “Effect on soluble Aβ40” value ([2]; study 9, Tg2576, 24 weeks at start, 6 μmol/kg p.o., 94 days, 3 h since last dosing) was −28%, the “Effect on soluble Aβ40” value ([2]; study 10, Tg2576, 24 weeks at start, 1 μmol/kg p.o., 29 days, 3 h since last dosing, P < 0.05) was −26 ^* % and the “Effect on soluble Aβ40” value ([2]; study 10, Tg2576, 24 weeks at start, 3 μmol/kg p.o., 29 days, 3 h since last dosing, P < 0.05) was −41 ^* %. The “Effect on soluble Aβ40” value ([2]; study 10, Tg2576, 24 weeks at start, 6 μmol/kg p.o., 29 days, 3 h since last dosing, P < 0.05) was −47 ^* %, the “Effect on soluble Aβ40” value ([2]; study 11, Tg2576, 24 weeks at start, 6 μmol/kg p.o., 30 days, 3 h since last dosing, P < 0.05) was −40 ^* % and the “Effect on soluble Aβ40” value ([2]; study 12, Tg2576, 25 weeks at start, 70 μmol/kg p.o., 1 day, 3 h since last dosing, P < 0.05) was −76 ^* %. For the same compound, the “Effect on soluble Aβ40” value ([2]; study 13, Tg2576, 25 weeks at start, 1 μmol/kg p.o., 4 days, 3 h since last dosing, P < 0.05) was −41 ^* %, the “Effect on soluble Aβ40” value ([2]; study 13, Tg2576, 25 weeks at start, 3 μmol/kg p.o., 4 days, 3 h since last dosing, P < 0.05) was −56 ^* % and the “Effect on soluble Aβ40” value ([2]; study 13, Tg2576, 25 weeks at start, 7.5 μmol/kg p.o., 4 days, 3 h since last dosing, P < 0.05) was −69 ^* %. The “Effect on soluble Aβ40” value ([2]; study 14, Tg2576, 25 weeks at start, 70 μmol/kg p.o., 1 day, samples 3, 6, 24, 48, 120 h (text: 74% at 6 h), P < 0.05) was −74 ^* %, the “Effect on soluble Aβ40” value ([2]; study 15, Tg2576, 36 weeks at start, 6 μmol/kg p.o., vehicle 3, 8 days, 3 h since last dosing, P < 0.05) was −50 ^* % and the “Effect on soluble Aβ40” value ([2]; study 16, Tg2576, 60 weeks at start, 6 μmol/kg p.o., 4 days, 3 h since last dosing) was −17%. For the same compound, the “Effect on soluble Aβ40” value ([2]; study 17, Tg2576, 68 weeks at start, 6 μmol/kg p.o., 4 days, 3 h since last dosing) was −6.3%, the “Effect on soluble Aβ40” value ([2]; study 18, Tg2576, 81–89 weeks at start, 70 μmol/kg p.o., 1 day, samples 6, 24, 48, 96 h, time of this value not given) was 8% and the “Effect on soluble Aβ40” value ([2]; study 19, Tg2576, 32 weeks at start, 30 μmol/kg p.o., 4 days, 4.5 h since last dosing, P < 0.05) was −55 ^* %. For the same compound, the “Effect on soluble Aβ40” value ([2]; study 20, Tg2576, 32 weeks at start, 30 μmol/kg p.o., 21 days, 4.5 h since last dosing, P < 0.05) was −70 ^* %, the “Effect on soluble Aβ40” value ([2]; study 21, Tg2576, 36 weeks at start, 6 μmol/kg p.o., vehicle 3, 8 days, 3 h since last dosing, P < 0.05) was −63 ^* % and the “Effect on soluble Aβ40” value ([2]; study 22, Tg2576, 24–28 weeks at start, 30 μmol/kg p.o., 45 days, 4.5 h since last dosing, P < 0.05) was −57 ^* %. The “Effect on soluble Aβ40” value ([2]; study 23, Tg2576, 37–40 weeks at start, 30 μmol/kg p.o., 28 days, 4.5 h since last dosing, P < 0.05) was −56 ^* %, the “decrease in soluble Aβ40 levels” value [3] was 63% and the fraction unbound at 5 h, 1 μmol/L [4] was 0.0067.
